Measurements reported in patent US7601716B2, “Pyridopyrazines and derivatives thereof as ALK and c-Met inhibitors” (Cephalon, Inc., priority 2006, dated 2009).

Experiments:
[1] = molecular target: T1, c-Met (phospho-c-Met) in A549 cells (Homo sapiens, UniProt P08581); test: c-Met Cellular Activity/Autophosphorylation Assay, A549 cells (HGF stimulated); type: cell-based; settings: 50 ng/mL HGF; for inhibition at 1 µM: 1 μM compound, read-out: c-Met autophosphorylation inhibition score, A549 Cells (1 μM); for inhibition at 3 µM: 3 μM compound, read-out: c-Met autophosphorylation inhibition score, A549 Cells (3 μM)
T1 construct: endogenous in cells; host or cells: HT29, A549 (HGF-stimulated), GTL-16
T1 sequence (P08581 25-1390): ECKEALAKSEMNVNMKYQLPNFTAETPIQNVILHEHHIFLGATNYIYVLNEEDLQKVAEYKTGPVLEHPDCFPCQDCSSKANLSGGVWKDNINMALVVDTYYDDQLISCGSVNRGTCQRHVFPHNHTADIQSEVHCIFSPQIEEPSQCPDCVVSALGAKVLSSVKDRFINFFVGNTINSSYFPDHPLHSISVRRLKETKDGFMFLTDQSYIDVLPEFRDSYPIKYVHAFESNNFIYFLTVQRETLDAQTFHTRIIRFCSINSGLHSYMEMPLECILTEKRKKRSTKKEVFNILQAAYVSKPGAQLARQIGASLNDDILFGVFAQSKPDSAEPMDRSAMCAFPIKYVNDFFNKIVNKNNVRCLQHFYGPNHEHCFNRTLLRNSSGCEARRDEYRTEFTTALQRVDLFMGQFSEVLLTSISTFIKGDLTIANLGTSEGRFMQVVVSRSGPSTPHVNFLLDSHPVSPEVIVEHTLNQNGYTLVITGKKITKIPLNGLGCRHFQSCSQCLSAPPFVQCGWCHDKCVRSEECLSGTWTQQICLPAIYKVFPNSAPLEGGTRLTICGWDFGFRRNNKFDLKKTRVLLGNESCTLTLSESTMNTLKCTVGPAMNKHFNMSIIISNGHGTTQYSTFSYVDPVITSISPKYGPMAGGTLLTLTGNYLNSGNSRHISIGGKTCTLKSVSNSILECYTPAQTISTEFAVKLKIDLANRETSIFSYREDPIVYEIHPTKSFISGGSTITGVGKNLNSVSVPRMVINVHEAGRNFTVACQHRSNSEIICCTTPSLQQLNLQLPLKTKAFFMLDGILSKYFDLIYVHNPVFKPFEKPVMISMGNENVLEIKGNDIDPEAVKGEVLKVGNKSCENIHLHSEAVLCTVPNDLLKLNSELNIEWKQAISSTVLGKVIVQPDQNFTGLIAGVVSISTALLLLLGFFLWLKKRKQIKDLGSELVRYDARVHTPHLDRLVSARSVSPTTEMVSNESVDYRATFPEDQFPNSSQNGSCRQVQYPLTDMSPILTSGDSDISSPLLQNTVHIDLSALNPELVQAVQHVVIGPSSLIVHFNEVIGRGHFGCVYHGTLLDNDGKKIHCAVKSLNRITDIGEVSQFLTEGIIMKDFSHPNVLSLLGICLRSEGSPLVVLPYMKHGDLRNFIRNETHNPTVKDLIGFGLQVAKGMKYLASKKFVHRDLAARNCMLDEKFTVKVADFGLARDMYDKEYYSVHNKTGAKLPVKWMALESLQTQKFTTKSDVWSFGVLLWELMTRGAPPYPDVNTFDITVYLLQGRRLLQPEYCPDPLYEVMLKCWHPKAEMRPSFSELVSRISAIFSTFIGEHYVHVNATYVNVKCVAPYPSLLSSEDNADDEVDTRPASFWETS
In short: (§1)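 HT29 and GTL-16 cells serum-starved 1 h in 0.05% BSA with compound (1-10 μM); A549 serum-starved overnight, compound-treated 1 h, then HGF 50 ng/mL for 15 min. Lysates Western blotted; phospho-c-Met and total c-Met quantified by infrared fluorescence imaging.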

[2] = molecular target: T2, c-Met (phospho-c-Met) in HT29 cells (Homo sapiens, UniProt P08581); test: c-Met Cellular Activity/Autophosphorylation Assay, HT29 cells; type: cell-based; settings: for inhibition at 1 µM: HT-29, 1 μM compound, read-out: c-Met autophosphorylation inhibition score, HT29 Cells (1 μM); for inhibition at 3 µM: HT-29, 3 μM compound, read-out: c-Met autophosphorylation inhibition score, HT29 Cells (3 μM)
T2 construct: endogenous in cells; host or cells: HT29, A549 (HGF-stimulated), GTL-16
T2 sequence (P08581 25-1390): as above
In short: as §1

NPM-ALK = molecular target: T3, NPM-ALK (Homo sapiens, UniProt Q9UM73); test: ALK Cellular Assay (phospho-NPM-ALK immunoblot / ALK tyrosine phosphorylation ELISA); type: cell-based
T3 construct: a fusion protein consisting of nucleophosmin (NMP) and the intracellular domain of ALK; the other entry of the earlier key: NPM1 (P06748, Nucleophosmin)
Description: Immunoblotting of phospho-NPM-ALK and total NPM-ALK from cell lysates was carried out according to the protocols provided by the antibody suppliers. In brief, after treatment of Example compounds, cells were lysed in Frak lysis buffer [10 mM Tris, pH 7.5, 1% Triton X-100, 50 mM sodium chloride, 20 mM sodium fluoride, 2 mM sodium pyrophosphate, 0.1% BSA, plus freshly prepared 1 mM activated sodium vanadate, 1 mM dithiothreitol (#165680050, ARCOS Organics, Geel, Belgium), and 1 mM PMSF (#837091, Boehringer Mannheim Biochemicals, Indianapolis, Ind.), protease inhibitors cocktail III (#539134-1Set, Calbiochem, 1:100 dilution)]. After brief sonication, the lysates were cleared by centrifugation, mixed with sample buffer and subjected to SDS-PAGE. Following transfer to membranes, the membranes were blotted with either rabbit phospho-NPM-ALK(Y664) (Cat^#3341) or ALK antibody (Cat^#3342) from Cell Signaling Technology (Beverly, Mass.), and then the HRP-conjugated goat anti-rabbit antibodies (Santa Cruz, Calif.) after washed in TBS/0.2% Tween-20. The protein bands were visualized with ECL Western Blotting detection reagents (RPN2106, Amersham Biosciences, Buckinghamshire, UK) and quantitated with gel-pro analyzer 3.1 software.
To measure ALK tyrosine phosphorylation in cells with an ELISA assay, fluoronunc plates (Cat^#437796, Nalge Nunc, Rochester, N.Y.) were pre-coated with goat anti-mouse IgG, and incubated with the capture mouse ALK antibody (Cat^#35-4300, Zymed, Seattle, Wash.) diluted 1:1000 in Superblock (Pierce, Rockford, Ill.). Following blocking, cell lysates were added to plates and incubated overnight at 4° C. Plates were incubated with the detecting antibody, anti-phospho-ALK (Y664) (Cell Signaling Technology), diluted at 1:2000, followed by incubation with goat anti-rabbit-IgG alkaline phosphatase to amplify the detection. Wells were exposed to the fluorogenic substrate 4-MeUP (#3368-04-5, Calbiochem) and the signal quantified using a CytoFluor® (series 4000) Fluorescence Multi-Well Plate Reader (Applied Biosystems, Foster City, Calif.).

[3] = molecular target: baculovirus-expressed ALK (Homo sapiens, UniProt Q9UM73); test: ALK Kinase Assay (ELISA/TRF, PLC-γ substrate); type: biochemical; settings: read-out: ALK Kinase Inhibition (IC50); further: 1 µM ATP (Km level)
In short: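 ALK at 30 ng/ml phosphorylated plate-bound PLC-γ–GST fusion (coated from 10 μg/mL) during 15 minutes at 37° C. Product was detected with Eu-N1 PT66 anti-phosphotyrosine antibody and measured by time-resolved fluorescence.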

[4] = molecular target: T4, c-Met (cytoplasmic domain) (Homo sapiens, UniProt P08581); test: c-Met Kinase Assay (ELISA/TRF, PLC-γ substrate); type: biochemical; settings: 3 μM ATP (Km level); read-out: c-Met Kinase Inhibition (IC50)
T4 construct: Reactions were initiated with 30 ng/mL c-Met (cytoplasmic domain, Invitrogen Corporation #PV3143); purchased Invitrogen Corporation PV3143
T4 sequence (P08581 956-1390 limits assumed): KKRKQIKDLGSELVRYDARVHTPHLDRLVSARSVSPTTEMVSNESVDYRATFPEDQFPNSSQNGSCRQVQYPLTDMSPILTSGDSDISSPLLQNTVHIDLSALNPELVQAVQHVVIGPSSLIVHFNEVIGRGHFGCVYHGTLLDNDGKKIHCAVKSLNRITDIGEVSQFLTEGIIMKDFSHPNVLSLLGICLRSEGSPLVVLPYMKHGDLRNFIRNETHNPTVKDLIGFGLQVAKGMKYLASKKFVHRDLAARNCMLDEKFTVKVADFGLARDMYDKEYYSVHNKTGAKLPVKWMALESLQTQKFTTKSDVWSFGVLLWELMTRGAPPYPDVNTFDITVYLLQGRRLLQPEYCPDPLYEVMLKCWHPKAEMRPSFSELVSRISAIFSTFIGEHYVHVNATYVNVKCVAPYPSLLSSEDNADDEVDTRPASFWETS
In short: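 Readout is TRF of europium anti-phosphotyrosine (PT66) bound to GST–PLC-γ substrate coated at 10 μg/mL, after a 15 min, 37 °C reaction started with 30 ng/mL c-Met cytoplasmic domain. Percent inhibition plotted against log compound concentration and fitted (variable slope) for IC50.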

[5] = molecular target: T5, c-Met (phospho-c-Met) in GTL-16 cells (Homo sapiens, UniProt P08581); test: c-Met Cellular Activity/Autophosphorylation Assay, GTL-16 cells; type: cell-based; settings: for inhibition at 1 µM: 1 μM compound, read-out: c-Met autophosphorylation inhibition score, GTL-16 Cells (1 μM); for inhibition at 3 µM: 3 μM compound, read-out: c-Met autophosphorylation inhibition score, GTL-16 Cells (3 μM)
T5 construct: endogenous in cells; host or cells: HT29, A549 (HGF-stimulated), GTL-16
T5 sequence (P08581 25-1390): as the sequence (P08581 25-1390) above
Description: HT29 and GTL-16 cells were serum starved for one hour in media containing 0.05% BSA and varying concentrations of Example compounds (1-10 μM). A549 cells were serum starved overnight in media containing 0.05% BSA then treated for one hour with Example compounds followed by a 15 minute stimulation with 50 ng/mL HGF (Peprotech, Rocky Hill, N.J.), respectively. Samples were resolved by electrophoresis on a 3-8% Tris-Acetate gel (40 ma/gel) and then transferred to a nitrocellulose membrane. Membranes were blocked for one hour at room temperature in Odyssey Blocking Buffer (Licor #927-40000) diluted 1:1 with 1×TBS. Membranes were then co-incubated overnight at 4° C. with primary antibodies [total Met (Cell Signaling, #3127) and Phospho-Met (Biosource, #44-888G) 1:1000 each in Odyssey Blocking Buffer diluted 1:1 with 1×TBS-T 0.05%]. The next day, membranes were washed and co-incubated with secondary antibodies [Goat anti mouse IRDye800 (Rockland, #610-132-121) and Goat anti rabbit Alexa fluor 700 (Molecular Probes, #A21038) 1:10,000] in Odyssey Blocking Buffer diluted 1:1 with 1×TBS-T 0.05% for one hour at room temperature protected from light. Blots were then washed and read on the Odyssey Infrared Imager. Total c-Met signal was visualized at 800 nm detection and phospho-c-Met signal was visualized at 700 nm detection.

Compound | inhibition at 1 µM [1] [%] | inhibition at 3 µM [1] [%] | inhibition at 1 µM [2] [%] | inhibition at 3 µM [2] [%] | melting point [°C] | IC50 (NPM-ALK) [nM] | IC50 [3] [nM] | IC50 [4] [nM] | inhibition at 1 µM [5] [%] | inhibition at 3 µM [5] [%]
CN1CCN(c2ccc(-c3cnc4c(c3)N(Cc3cc(F)ccc3F)CCN4)cn2)CC1 [Example 69, 1-(2,5-Difluorobenzyl)-7-[6-(4-methylpiperazin-1-yl)pyridin-3-yl]-1,2,3,4-tetrahydropyrido[2,3-b]pyrazine] | 0 to 25 | 0 to 25 | 0 to 25 | 0 to 25 | 192 to 193 | 751 to 1000 | < 100 | 1000 to 10000 | – | –
O=C(c1ccc(-c2cnc3c(c2)N(Cc2c(F)ccc(F)c2Cl)CCN3)cc1)N1CCC(N2CCCC2)CC1 [Example 99, {4-[1-(2-Chloro-3,6-difluorobenzyl)-1,2,3,4-tetrahydropyrido[2,3-b]pyrazin-7-yl]phenyl}-(4-(pyrrolidin-1-yl)piperidin-1-yl)methanone] | 0 to 25 | 0 to 25 | 0 to 25 | 0 to 25 | 93 to 95 | ≤ 250 | < 100 | 100 to 1000 | – | –
O=C1CNc2ncc(-c3ccc(C(=O)N4CCC[C@H]4CN4CCCC4)cc3)cc2N1Cc1cc(Cl)ccc1Cl [Example 157, S-1-(2,5-Dichlorobenzyl)-7-[4-(2-[(pyrrolidin-1-yl)methyl]pyrrolidine-1-carbonyl)phenyl]-3,4-dihydro-1H-pyrido[2,3-b]pyrazin-2-one] | 0 to 25 | 0 to 25 | 0 to 25 | 26 to 50 | 180 | 251 to 500 | < 100 | 100 to 1000 | – | –

Next, values leading:

inhibition at 1 µM [1] [%] | inhibition at 3 µM [1] [%] | inhibition at 1 µM [2] [%] | inhibition at 3 µM [2] [%] | melting point [°C] | IC50 (NPM-ALK) [nM] | IC50 [3] [nM] | IC50 [4] [nM] | inhibition at 1 µM [5] [%] | inhibition at 3 µM [5] [%] | Compound
0 to 25 | 0 to 25 | 26 to 50 | 26 to 50 | – | 251 to 500 | < 100 | 1000 to 10000 | – | – | CC(c1c(F)ccc(F)c1Cl)N1CCNc2ncc(-c3ccc(N4CCN(C)CC4)nc3)cc21 (stereo not shown) [Example 177, 1-[1-(2-Chloro-3,6-difluorophenyl)ethyl]-7-[6-(4-methylpiperazin-1-yl)pyridin-3-yl]-1,2,3,4-tetrahydropyrido[2,3-b]pyrazine]
– | – | 51 to 75 | 76 to 100 | – | – | – | – | 0 to 25 | 0 to 25 | CN1CCN(c2ccc(-c3cnc4c(c3)N(Cc3c(F)ccc(F)c3Cl)CCN4)cn2)CC1 [Example 185, 1-(2-Chloro-3,6-difluorobenzyl)-7-[6-(4-methylpiperazin-1-yl)pyridin-3-yl]-1,2,3,4-tetrahydropyrido[2,3-b]pyrazine]
– | – | 26 to 50 | 26 to 50 | 157 | ≤ 250 | < 100 | 1000 to 10000 | 0 to 25 | 0 to 25 | Fc1ccc(F)c(CN2CCNc3ncc(-c4ccnc(N5CCOCC5)c4)cc32)c1Cl [Example 186, 1-(2-Chloro-3,6-difluorobenzyl)-7-(2-morpholin-4-yl-pyridin-4-yl)-1,2,3,4-tetrahydropyrido[2,3-b]pyrazine]
